Measured values: patent publication US8778929B2, “Substituted heteroaryl inhibitors of B-RAF” (Boehringer Ingelheim International GmbH, priority 2008, dated 2014)

What follows are compounds tested against B-Raf (V600E)-kinase (Homo sapiens, UniProt P15056, V600E) (assay: Kinase test B-Raf (V600E)). Details: compound concentration 2 μM; 100% = no inhibition, 0% = total inhibition; read-out: % CTL (residual activity of the enzyme relative to DMSO control).
Format: biochemical
Description: In a dilution series 10 μL of test substance solution are placed in a multiwell plate. The dilution series is selected so that generally a range of concentrations of 2 μM to 0.119 nM or 0.017 nM is covered. If necessary the initial concentration of 2 μM is changed to 50 μM, 10 μM or 0.4 μM or 0.2857 μM and further dilution is carried out accordingly. The final concentration of DMSO is 5%. 10 μL of the B-Raf (V600E)-kinase solution are pipetted in (containing 0.5 ng B-Raf (V600E)-kinase in 20 mM Tris-HCl pH 7.5, 0.1 mM EDTA, 0.1 mM EGTA, 0.286 mM sodium orthovanadate, 10% glycerol, 1 mg/mL bovine serum albumin, 1 mM dithiothreitol) and the mixture is incubated for 1 h at RT under with shaking The kinase reaction is started by the addition of 20 μL ATP solution [final concentration: 250 μM ATP, 30 mM Tris-HCl pH 7.5, 0.02% Brij, 0.2 mM sodium orthovanadate, 10 mM magnesium acetate, 0.1 mM EGTA, phosphatase cocktail (Sigma, # P2850, dilution recommended by the manufacturer), 0.1 mM EGTA] and 10 μL MEK1 solution [containing 50 ng biotinylated MEK1 (prepared from purified MEK1 according to standard procedure, e.g. with EZ-Link Sulpho-NHS-LC-Biotin reagent, Pierce, # 21335) and carried out for 60 min at RT with constant shaking. The reaction is stopped by the addition of 12 μL of a 100 mM EDTA solution and incubation is continued for a further 5 min. 55 μL of the reaction solution are transferred into a streptavidin-coated plate (e.g. Streptawell HighBond, Roche, #11989685001) and shaken gently for 1 h at RT, in order to bind biotinylated MEK1 to the plate. After elimination of the liquid the plate is washed five times with 200 μL of 1×PBS and 100 μL solution of primary antibody plus europium-labelled secondary antibody [Anti Phospho-MEK (Ser217/221), Cell Signaling, # 9121 and Eu-N1 labeled goat-anti-rabbit antibody, Perkin Elmer, #AD0105], the primary antibody is diluted 1:2000 and the secondary antibody is diluted to 0.4-0.5 μg/mL in Delfia Assay Buffer (Perkin Elmer, #1244-111). After 1 h shaking at RT the solution is poured away and washed five times with 200 μL Delfia Wash Buffer (Perkin Elmer, #4010-0010/#1244-114). After the addition of 200 μL Enhancement Solution (Perkin Elmer, #4001-0010/#1244-105) the mixture is shaken for 10 min at RT and then measured in a Wallac Victor using the program “Delfia Time Resolved Fluorescence (Europium)”. IC50 values are obtained from these dosage-activity curves using a software program (GraphPadPrizm).
A value of 100% indicates no inhibition while a value of 0% indicates total inhibition. The % CTL values denote the residual activity of the enzyme after the addition of the inhibitory compound in the solvent DMSO in relation to the enzyme activity in the solvent DMSO without the addition of a compound (control). The values were determined using the B-Raf(V600E)-kinase test described above.

Sequence of B-Raf (V600E)-kinase (P15056 whole entry V600E): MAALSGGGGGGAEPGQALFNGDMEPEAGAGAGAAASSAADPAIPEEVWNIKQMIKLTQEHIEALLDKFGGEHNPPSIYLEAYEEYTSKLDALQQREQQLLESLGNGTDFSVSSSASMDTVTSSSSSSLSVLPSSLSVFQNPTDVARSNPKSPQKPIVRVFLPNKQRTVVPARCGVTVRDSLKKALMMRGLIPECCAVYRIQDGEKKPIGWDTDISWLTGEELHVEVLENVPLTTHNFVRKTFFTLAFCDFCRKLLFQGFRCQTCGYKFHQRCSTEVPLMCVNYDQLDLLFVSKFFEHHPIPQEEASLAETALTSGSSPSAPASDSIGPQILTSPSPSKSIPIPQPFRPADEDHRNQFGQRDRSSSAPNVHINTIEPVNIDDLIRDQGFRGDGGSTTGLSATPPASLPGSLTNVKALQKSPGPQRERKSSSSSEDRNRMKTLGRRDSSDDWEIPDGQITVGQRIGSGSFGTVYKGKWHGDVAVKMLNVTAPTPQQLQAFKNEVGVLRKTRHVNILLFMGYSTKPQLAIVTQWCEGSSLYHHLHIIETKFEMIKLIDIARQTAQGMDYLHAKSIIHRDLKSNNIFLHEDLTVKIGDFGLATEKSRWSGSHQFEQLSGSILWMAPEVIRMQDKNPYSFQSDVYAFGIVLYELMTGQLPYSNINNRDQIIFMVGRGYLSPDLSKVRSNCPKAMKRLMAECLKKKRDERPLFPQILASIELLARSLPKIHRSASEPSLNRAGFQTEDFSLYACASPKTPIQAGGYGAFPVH

remaining activity at 2 µM [%]	Structure (SMILES)
4.5	Cc1ncc(C(=O)Nc2cnn(C(C)C)c2C)cc1-n1cc(-c2cncc(N3CCN(C(C)C)CC3)c2)nn1 [Example I-151]
2.2	COc1c(CNC(C)C)cc(NC(=O)c2cnc(C)c(-n3cc(-c4cnc5cnc(C)cn45)nn3)c2)cc1C(F)(F)F [Example I-50]
2.4	Cc1ncc(C(=O)Nc2cc(N3CCN(C)CC3)cc(C(F)(F)F)c2)cc1-n1cc(-c2cncnc2)nn1 [Example I-18]
1.9	CCN1CCN(c2cc(NC(=O)c3cnc(C)c(-n4cc(-c5cncnc5)nn4)c3)cc(C(F)(F)F)c2C)CC1 [Example I-20]
2	COc1ccc(NC(=O)c2cnc(C)c(-n3cc(-c4cnn(C)c4C)nn3)c2)cc1C(F)(F)F [Example I-7]
3.3	Cc1cn2c(-c3cn(-c4cc(C(=O)Nc5cc(N6CCN(C)CC6)c(C)c(C(F)(F)F)c5)cnc4C)nn3)cnc2cn1 [Example I-44]
1.9	Cc1ncc(C(=O)Nc2cc(N3CC[C@H](N(C)C)C3)cc(C(F)(F)F)c2)cc1-n1cc(-c2cnn(C)c2C)nn1 [Example I-77]
3.5	COCCN(C)Cc1cc(NC(=O)c2cnc(C)c(-n3cc(-c4cnn(C)c4C)nn3)c2)cc(C(F)(F)F)c1C [Example I-94]
0.9	Cc1ncc(NC(=O)c2cc(OC(F)(F)F)cc(N3CCN(C)CC3)c2)cc1-n1cc(-c2cccnc2)nn1 [XII-17]
1.4	Cc1ncc(C(=O)Nc2cc(CN3CCCC3)c(Cl)c(C(F)(F)F)c2)cc1-n1cc(-c2cnn(C)c2C)nn1 [Example I-53]
1.7	Cc1ncc(C(=O)Nc2cc(C(C)(C)C)on2)cc1-n1cc(-c2cncc(N3CCOCC3)c2)nn1 [Example I-35]
2.1	Cc1ncc(C(=O)Nc2cc(N3CCN(C)CC3)c(C)c(C(F)(F)F)c2)cc1-n1cc(-c2cnn(C)c2C)nn1 [Example I-6]
7.9	Cc1ncc(C(=O)Nc2cc(C(C)(C)C)on2)cc1-n1cc(-c2cncc(N3CCN(C4CCCC4)CC3)c2)nn1 [Example I-166]
7.6	Cc1ncc(C(=O)Nc2cc(C(C)(C)C)on2)cc1-n1cc(-c2cnn(C)c2C)nn1 [Example I-1]
6.1	Cc1ncc(C(=O)Nc2cc(CN3CCCC3)c(Cl)c(C(F)(F)F)c2)cc1-n1cc(-c2cncs2)nn1 [Example I-127]
7.9	Cc1ncc(C(=O)Nc2cc(C(C)(C)C)on2)cc1-n1cc(-c2cncc(N3CCN(C(C)(C)C)CC3)c2)nn1 [Example I-167]
8.1	Cc1ncc(C(=O)Nc2cc(N3CCOCC3)c(C)c(C(F)(F)F)c2)cc1-n1cc(-c2cnn(C)c2C)nn1 [Example I-61]
5.8	Cc1ncc(C(=O)Nc2cc(CN3CCCC3)cc(C(F)(F)F)c2)cc1-n1cc(-c2cncs2)nn1 [Example I-123]
5.9	Cc1ncc(C(=O)Nc2cc(C(F)(F)F)ccn2)cc1-n1cc(-c2cncnc2)nn1 [Example I-23]
6.1	CCN1CCN(c2cc(NC(=O)c3cnc(C)c(-n4cc(-c5cccnc5)nn4)c3)cc(C(F)(F)F)c2C)CC1 [Example I-46]
3	Cc1ncc(C(=O)Nc2cc(C3=CCN(CC4CC4)CC3)c(C)c(C(F)(F)F)c2)cc1-n1cc(-c2cnn(C)c2C)nn1 [Example I-98]
1.4	COc1c(NC(=O)c2cnc(C)c(-n3cc(-c4cnn(C)c4C)nn3)c2)cc(C(C)(C)C)cc1NS(C)(=O)=O [Example I-9]
5.5	Cc1ncc(C(=O)Nc2cc(N3CCN(C(C)C)CC3)cc(C(F)(F)F)c2)cc1-n1cc(-c2cnn(C)c2C)nn1 [Example I-58]
2.3	Cc1ncc(C(=O)Nc2ccnc(C(C)(C)C)c2)cc1-n1cc(-c2cncc(N3CCN(C)CC3)c2)nn1 [Example I-178]

Same assay, conditions: measurement at 1.43 μM (***); 100% = no inhibition, 0% = total inhibition; read-out: % CTL (residual activity of the enzyme relative to DMSO control)

remaining activity at 1.43 µM [%]	Structure (SMILES)
2	Cc1ncc(C(=O)Nc2cc(N3CC[C@@H](N(C)C)C3)cc(C(F)(F)F)c2)cc1-n1cc(-c2cnn(C)c2C)nn1 [Example I-76]
